Ends that are not written are not given here.
What was measured:
[1] = test system: HaCaT cells (human immortalized keratinocytes); test: Proliferation of HaCaT cells (CCK8); type: cell-based; conditions: 72 h, 1640 medium with 1% serum, FIG. 1
Method: Experimental method: Human immortalized keratinocytes (HaCAT cells) were adjusted to a concentration of 1.0*10^5 to 5.0*10^5/mL for passaging, and cultured at 37° C. and 5% CO2 for 24-36 hours for the biological activity detection. The cells were digested with 0.25% pancreatin for 5 min, a 1640 whole blood medium with more than 1 times the volume of pancreatin was added to stop digestion, a cell suspension was collected and centrifuged at 1000 RPM for 3 min, the supernatant was discarded, 2 mL of 1640 whole blood medium was added to resuspend the cells, 20 uL cell suspension was taken, stained with AOPI, and then the concentration of cells in the suspension was detected with a cell counter, the cell suspension was formulated with 1640 medium with 10% serum to a concentration of 5*10^4/mL and seeded into 96-well cell culture plates with 100 μL per well, i.e. 5000 cells/well, and cultured overnight at 37° C. and 5% CO2.
After 24 hours, the original culture medium was discarded and 100 μL of each of different concentrations of polypeptide solutions formulated with 1640 culture medium with 1% serum was added. […] The mixtures were cultured at 37° C. and 5% CO2 for 72 h, and the proliferation of the HaCaT cell line was detected by the CCK8 kit.

[2] = test system: Wild-type AB-line zebrafish; test: Tissue regeneration in zebrafish with caudal fin damage; type: in vivo; conditions: 250, 500 and 1000 μg/mL in water, 28° C., 3 days; vs model control; FIG. 5
Method: Experimental animals: Wild-type AB-line zebrafish, raised in water for culturing fish at 28° C. (water quality: 200 mg of instant dissolving sea salt being added to every 1 L of water made by reverse osmosis, with a conductivity of 450-550 μS/cm, a pH of 6.5-8.5 and a hardness of 50-100 mg/L CaCO3), at the age of 3 days post fertilization (3 dpf). The animals were provided by the fish breeding center of Hangzhou Hunter Biotechnology Co., Ltd. with the experimental animal use license number of SYXK (Zhejiang) 2012-0171, and the breeding management complied with the requirements of international AAALAC certification (certification number: 001458).
Experimental method: 3 dpf wild AB-line zebrafish were randomly selected, and the caudal fins of zebrafish was excised to establish a model of caudal fin damage in zebrafish. […] Treatment was performed at 28° C. for 3 days, 10 zebrafish were randomly selected in each experimental group and placed under an anatomical microscope to take photos, the data were analyzed and collected using NIS-Elements D 3.20 advanced image processing software, the regeneration areas of caudal fins of zebrafish were analyzed, and the statistical analysis results of this index were used to evaluate the efficacy of the samples of promoting tissue regeneration.

SD rats = test: Healing of full-layer skin defect wound in SD rats; type: in vivo, rat; conditions: for Wound healing rate: SD rats, topical once a day, polypeptide 50 μg/cm^2, comparative polypeptide 1 41.90 μg/cm^2, comparative polypeptide 2 52.66 μg/cm^2, Mean ± SD, n = 8
Method: Experimental animals: SD male rats, SPF grade, 6 weeks old, weighing 180-220 g, from Beijing Vital River Laboratory Animal Technology Co., Ltd., with the experimental animal quality certification number of NO.110011220109610345, and the experimental animal use license number of SCXK (Beijing) 2021-0011.
Experimental method: SD rats were randomly divided into […] based on the body weight with 8 animals in each group, namely, vehicle group, the polypeptide group (50 μg/cm^2), comparative polypeptide 1 group (41.90 μg/cm^2) and comparative polypeptide 2 group (52.66 μg/cm^2). The amino acid sequence of comparative polypeptide 1 is Glu-Pro-Val-Pro-Leu; and the amino acid sequence of comparative polypeptide 2 is Pro-Ala-Ala-Glu-Pro-Val-Pro-Leu-Val-Lys-Gln-Glu.
After each experimental rat was anesthetized by intraperitoneal injection of 2% pentobarbital sodium (0.2 mL/100 g), a 2 cm^2 full-layer skin defect wound was prepared at each of both sides of the back spine. After hemostasis of the wound, the corresponding drug was administered at the wound locally by group. Each group was administered once a day, with a dosed volume of 72 μL/wound each time, for 14 consecutive days. After the administration, the wound was covered with a sterile vaseline gauze (5 cm*5 cm), and bandaged with multi-layer sterile gauzes. After the wound surgery, the wound was photographed, and the wound area was recorded as the baseline value (the wound was recorded as Day0). During the administration period, the areas of the wounds were photographed and measured 3 times a week, and the healing was observed.

## PAAEPVPL [polypeptide]
[1]
  Proliferation-promoting effect on the HaCaT cell line: significant effect of promoting proliferation
[2]
  Zebrafish caudal fin regeneration (regeneration area): significantly promoting tissue regeneration
SD rats; 50 μg/cm^2, days 3-10 after surgery, vs vehicle group
  Healing rate of full-layer skin defect wound (statement in words): higher healing rate with a significant difference
SD rats; Day 0 (baseline)
  Wound healing rate: 0.00 ± 0.00%
SD rats; Day 3
  Wound healing rate: 29.70 ± 19.21 %
SD rats; Day 5
  Wound healing rate: 52.21 ± 11.54 %
SD rats; Day 7
  Wound healing rate: 74.12 ± 5.95 %
SD rats; Day 10
  Wound healing rate: 94.55 ± 2.40 %
